“And” between values parts separate entries of the source, which are not always exact repeats. Equal values may be shown once. Toxic doses and inconclusive results are not listed. Cut-off read from the data, not from the text of the source: active = T/C of 150% or more; inactive = T/C below 125%.
Tested on: L1210 leukemia ip in BDF1 mice, survival T/C
Experiment: NCI In Vivo Anticancer Drug Screen. Data for tumor model L1210 Leukemia (intraperitoneal) in B6D2F1 (BDF1) mice
Details: endpoint: mean survival time, higher = longer survival
In short: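 Tumor cells were implanted, animals were treated, and survival was followed. The result divides the treated measurement by the vehicle-control measurement.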

[1] = dose: 50.0 mg/kg/injection, schedule: Q01DX009 (ip), vehicle: saline with Tween-80
[2] = dose: 100.0 mg/kg/injection, schedule: Q01DX009 (ip), vehicle: saline with Tween-80
[3] = dose: 200.0 mg/kg/injection, schedule: Q01DX009 (ip), vehicle: saline with Tween-80
[4] = dose: 100.0 mg/kg/injection, schedule: Q01DX001 (ip), vehicle: carboxymethylcellulose (CMC)
[5] = dose: 200.0 mg/kg/injection, schedule: Q01DX001 (ip), vehicle: carboxymethylcellulose (CMC)
[6] = dose: 400.0 mg/kg/injection, schedule: Q01DX001 (ip), vehicle: carboxymethylcellulose (CMC)
[7] = dose: 100.0 mg/kg/injection, schedule: Q01DX001 (ip), vehicle: saline
[8] = dose: 200.0 mg/kg/injection, schedule: Q01DX001 (ip), vehicle: saline
[9] = dose: 400.0 mg/kg/injection, schedule: Q01DX001 (ip), vehicle: saline
[10] = dose: 12.5 mg/kg/injection, schedule: Q01DX009 (ip), vehicle: saline
[11] = dose: 25.0 mg/kg/injection, schedule: Q01DX009 (ip), vehicle: saline
[12] = dose: 50.0 mg/kg/injection, schedule: Q01DX009 (ip), vehicle: Klucel (hydroxypropylcellulose) (HPC)
[13] = dose: 100.0 mg/kg/injection, schedule: Q01DX009 (ip), vehicle: Klucel (hydroxypropylcellulose) (HPC)
[14] = dose: 200.0 mg/kg/injection, schedule: Q01DX009 (ip), vehicle: Klucel (hydroxypropylcellulose) (HPC)
[15] = dose: 400.0 mg/kg/injection, schedule: Q01DX009 (ip), vehicle: Klucel (hydroxypropylcellulose) (HPC)
[16] = dose: 100.0 mg/kg/injection, schedule: Q04DX003 (ip), vehicle: saline with Tween-80
[17] = dose: 200.0 mg/kg/injection, schedule: Q04DX003 (ip), vehicle: saline with Tween-80
[18] = dose: 400.0 mg/kg/injection, schedule: Q04DX003 (ip), vehicle: saline with Tween-80
[19] = dose: 100.0 mg/kg/injection, schedule: Q04DX003 (ip), vehicle: Klucel (hydroxypropylcellulose) (HPC)
[20] = dose: 200.0 mg/kg/injection, schedule: Q04DX003 (ip), vehicle: Klucel (hydroxypropylcellulose) (HPC)
[21] = dose: 400.0 mg/kg/injection, schedule: Q04DX003 (ip), vehicle: Klucel (hydroxypropylcellulose) (HPC)

Measured: T/C

O=C(CNC(=O)Nc1cccc(Cl)c1)N/N=C/c1cccc([N+](=O)[O-])c1
inactive: [1] 98 % of control | [2] 95 % of control | [3] 98 % of control

CN1CCc2ccc(O)cc2C1
inactive: dose: 100.0 mg/kg/injection, schedule: Q04DX003 (ip), vehicle: saline 95 % of control | dose: 200.0 mg/kg/injection, schedule: Q04DX003 (ip), vehicle: saline 95 % of control

CCOC(=O)C1C2C=CC=CC(=O)C21 (stereo not drawn)
inactive: dose: 100.0 mg/kg/injection, schedule: Q01DX009 (ip), vehicle: other 102 % of control | dose: 100.0 mg/kg/injection, schedule: Q04DX003 (ip), vehicle: other 95 % of control | dose: 200.0 mg/kg/injection, schedule: Q01DX009 (ip), vehicle: other 95 % of control | dose: 200.0 mg/kg/injection, schedule: Q04DX003 (ip), vehicle: other 95 % of control | dose: 400.0 mg/kg/injection, schedule: Q04DX003 (ip), vehicle: other 105 % of control

O=C(N/N=C/c1cc(Cl)ccc1O)C(O)(c1ccccc1)c1ccccc1
inactive: [4] 106 % of control | [5] 97 % of control | [6] 101 % of control

CCOc1ccc2ccccc2c1
inactive: [7] 102 % of control | [8] 98 % of control | [9] 102 % of control

CC1(C)C/C(=N/O)C/C(=N\O)C1
inactive: dose: 25.0 mg/kg/injection, schedule: Q04DX003 (ip), vehicle: Klucel (hydroxypropylcellulose) (HPC) 95 % of control | dose: 50.0 mg/kg/injection, schedule: Q04DX003 (ip), vehicle: Klucel (hydroxypropylcellulose) (HPC) 96 % of control

S=C([SH2+])[SH2+].S=C([SH2+])[SH2+].[Pt+2].c1ccc(C[P+](c2ccccc2)(c2ccccc2)c2ccccc2)cc1
inactive: [10] 96 % of control | [11] 97 % of control

CC1(C)C(=O)NC2(O)CCCC21 (stereo not drawn)
inactive: dose: 15.0 mg/kg/injection, schedule: Q01DX001 (ip), vehicle: saline 101 % of control

Cc1cccc(NC(=O)Nc2cccc(C(F)(F)F)c2)c1
inactive: [4] 97 % of control | [5] 101 % of control | [6] 97 % of control

COc1cccc(/C=N/NC(=O)c2ccncc2)c1OC
inactive: dose: 25.0 mg/kg/injection, schedule: Q01DX009 (ip), vehicle: Klucel (hydroxypropylcellulose) (HPC) 97 % of control | [12] 101 % of control | [13] 92 % of control and 105 % of control

c1ccc2c3c([nH]c2c1)CCC3
inactive: [4] 93 % of control | [5] 98 % of control | [6] 102 % of control

CC(C)P(=O)(OCc1ccccc1)C(C)C
inactive: [13] 97 % of control | [14] 94 % of control | [15] 89 % of control

COC(=O)C1Cc2ccccc2/C1=N\O (stereo not drawn)
inactive: [1] 94 % of control | [2] 94 % of control | [3] 94 % of control

O=C(NCCc1ccccc1)c1ccccc1
inactive: [16] 112 % of control | [17] 102 % of control | [18] 100 % of control

OC1COC(Cl)C(O)C1O (stereo not drawn)
inactive: dose: 25.0 mg/kg/injection, schedule: Q01DX009 (ip), vehicle: saline with Tween-80 96 % of control | [1] 97 % of control | [2] 94 % of control | [16] 91 % of control | [17] 88 % of control

COc1cc2ccncc2cc1OCc1ccccc1
inactive: [11] 104 % of control | dose: 50.0 mg/kg/injection, schedule: Q01DX009 (ip), vehicle: saline 96 % of control | dose: 100.0 mg/kg/injection, schedule: Q01DX009 (ip), vehicle: saline 102 % of control

CCCCN(CC)CC#N
inactive: dose: 6.25 mg/kg/injection, schedule: Q01DX009 (ip), vehicle: saline 104 % of control | [10] 101 % of control | dose: 12.5 mg/kg/injection, schedule: Q04DX003 (ip), vehicle: saline 94 % of control | [11] 93 % of control | dose: 25.0 mg/kg/injection, schedule: Q04DX003 (ip), vehicle: saline 89 % of control

OCCCCN=Cc1ccccc1O.OCCCCN=Cc1ccccc1O.[Cu]
inactive: dose: 9.5 mg/kg/injection, schedule: Q01DX001 (ip), vehicle: other 102 % of control | dose: 19.0 mg/kg/injection, schedule: Q01DX001 (ip), vehicle: other 108 % of control | dose: 38.0 mg/kg/injection, schedule: Q01DX001 (ip), vehicle: other 100 % of control | dose: 75.0 mg/kg/injection, schedule: Q01DX001 (ip), vehicle: other 96 % of control

Cc1cccc(OC(=O)Nc2cccc3ccccc23)c1
inactive: [13] 93 % of control | [14] 87 % of control | [15] 96 % of control

COC(=O)CCN(c1ccccc1)S(=O)(=O)c1ccc(C)cc1
inactive: [19] 91 % of control | [20] 94 % of control | [21] 93 % of control

CCOC(=O)CCc1nc2ccc3ccccc3c2c(=O)[nH]1
inactive: dose: 100.0 mg/kg/injection, schedule: Q04DX002 (ip), vehicle: Klucel (hydroxypropylcellulose) (HPC) 88 % of control | dose: 200.0 mg/kg/injection, schedule: Q04DX002 (ip), vehicle: Klucel (hydroxypropylcellulose) (HPC) 91 % of control | dose: 400.0 mg/kg/injection, schedule: Q04DX002 (ip), vehicle: Klucel (hydroxypropylcellulose) (HPC) 94 % of control

COc1ccc(CCCCCl)cc1
inactive: dose: 100.0 mg/kg/injection, schedule: Q01DX001 (ip), vehicle: acetone 95 % of control | dose: 200.0 mg/kg/injection, schedule: Q01DX001 (ip), vehicle: acetone 95 % of control | dose: 400.0 mg/kg/injection, schedule: Q01DX001 (ip), vehicle: acetone 96 % of control

C=C1N(C)c2ccc(Cl)cc2C1(C)C
inactive: [1] 102 % of control | [2] 98 % of control | [16] 94 % of control | [17] 96 % of control

N#CCCC(=O)c1ccncc1
inactive: [16] 96 % of control | [17] 107 % of control | [18] 104 % of control

COc1ccc(C=Nc2ccccc2N=Cc2ccc(OC)c(OC)c2)cc1OC
inactive: [2] 106 % of control | [16] 96 % of control | [3] 97 % of control | [17] 93 % of control | dose: 400.0 mg/kg/injection, schedule: Q01DX009 (ip), vehicle: saline with Tween-80 106 % of control | [18] 93 % of control

CC(OC(=O)c1ccccc1)c1ccccc1 (stereo not drawn)
inactive: [13] 94 % of control | [19] 101 % of control | [14] 100 % of control | [20] 103 % of control | [15] 96 % of control | [21] 101 % of control

CC1=C(N2CCCC2)CCCC1=O
inactive: dose: 100.0 mg/kg/injection, schedule: Q04DX002 (ip), vehicle: saline 112 % of control | dose: 200.0 mg/kg/injection, schedule: Q04DX002 (ip), vehicle: saline 107 % of control

S=C(NCCNC(=S)Nc1ccccc1)Nc1ccccc1
inactive: [1] 98 % of control | [2] 92 % of control | [3] 92 % of control

CCC(c1ccccc1)c1nc2ccccc2c2ccccc12 (stereo not drawn)
inactive: [12] 97 % of control | [13] 97 % of control | [14] 94 % of control

O=C(Nc1ccc(N=Nc2ccccc2)cc1)C(F)(F)F
inactive: [7] 102 % of control | [8] 109 % of control | [9] 93 % of control
